# Measured values from patent US20240374523A1, “STABILIZED APILIMOD COMPOSITIONS AND USES THEREOF” (Orphai Therapeutics Inc., priority 2021, published 2024).
# Entries after “also recorded” stand apart in the source; their conditions may differ. Where a name gives a salt, the structure may show the parent alone. Read-outs that look alike come from different tables or passages of the source.
# What was measured:
# [1] = cited from earlier work
# [2] = Solubility of apilimod vs pH in 0.1N HCl and Britton-Robinson buffers; format: physicochemical; details: for solubility at 3 days / solubility thermodynamic at 3 days: thermodynamic from solid; for solubility thermodynamic at 3 days: Britton-Robinson buffer
# Method: Next, the solubility of apilimod at various pH was evaluated. The samples were prepared at room temperature in 0.1N HCl (pH 1) and Britton-Robinson buffers (BRB) pH 2, 3, 4, 5, 6, 7 and 8. After 3 days, each sample was centrifuged for 30 min, the solution was filtered and the concentration of apilimod determined by HPLC analysis. HPLC analysis was carried out using an XTerra MS C18 (5 μm 4.6×150 mm) column and 18-minute gradient HPLC conditions.
# active Crohn's disease = active Crohn's disease (Sands et al. 2010); cited from earlier work
# [3] = test system: synovial IL-12 and IL-23 expression; details: patients with rheumatoid arthritis, Phase II (Krauz et al. 2012); cited from earlier work
# IL-12/IL-23 synthesis = details: oral administration, patients with psoriasis, open-label (Wada et al. 2012); cited from earlier work
# [4] = PXRD of residual solids after the IDR experiment; format: physicochemical; details: pellet surface after IDR experiment, compared with input API
# Method: X-Ray Powder Diffraction (XRPD). […] Configuration on the incidental beam side: variable divergence slits (10 mm irradiated length), 0.04 rad Soller slits, fixed anti-scatter slit) (0.50°, and 10 mm beam mask. Configuration on the diffracted beam side: variable anti-scatter slit (10 mm observed length) and 0.02 rad Soller slit. Samples were mounted flat on zero-background Si wafers.
# At the end of the IDR analysis, the pellet surface was analyzed by PXRD and compared to its corresponding input API for any physical changes.
# [5] = Kinetic solubility in FaSSIF (pH 6.5); format: physicochemical; details: FaSSIF pH 6.5, 1 hour
# Method: Additional kinetic solubility studies were carried out in Fasted State Simulated Intestinal Fluid (FaSSIF) at pH6.5 at ambient temperature and the results are shown in FIG. 3. FaSSIF helps reveal how an oral drug is likely to dissolve and potentially be absorbed in fluid from the upper intestine after drinking a glass of water. […] After 1 hour of stirring, all samples appeared to be hazy suspensions, but after 4 and 24 hours their appearance changed to a milky white suspension by PXRD analysis.
# [6] = Kinetic solubility in FaSSGF (pH 1.6); details: after test in FaSSGF
# Method: Kinetic solubility studies were carried out on the various apilimod salts provided in Table 1 in Fasted State Simulated Gastric Fluid (FaSSGF) at pH 1.6 at ambient temperature. FaSSGF is a dissolution medium that has the average acidic pH and similar osmolarity of fasted gastric fluid. FaSSGF that can help reveal how an oral drug is likely to behave in the stomach after drinking a glass of water. The stability, solubility and dissolution data generated from testing in FaSSGF can help identify critical factors influencing a drug's absorption in the fasted state, and in turn facilitate the selection of the appropriate solid state and formulation approach for a drug.
# [7] = Intrinsic dissolution rate (stationary disk, 0.01N HCl); format: physicochemical; set-up: Intrinsic Dissolution Rate free base equivalent: unit not given here; details: 37° C.; for Intrinsic Dissolution Rate free base equivalent: disk pressed at 3900 psi, 700 mL 0.01N HCl, paddle 50 rpm, UV 333 nm
# Method: Stationary disks for apilimod free base and the nine apilimod salts were prepared. Intrinsic dissolution rate of the free base and the nine salts were prepared from preparations at 3900 psi. Each disk was placed into a flat bottom vessel containing 700 mL of 0.01N HCl medium equipped with a Distek Dissolution bath, and a Distek cirvulator/heater set to 37°° C. with a paddle speed of 50 rpm. The Opt-Diss 405 system single analytical wavelength settings was 333 nm with a background wavelength setting of 400 nm and reading were taken every 1 minute to 35 minutes. […] The kinetic solubility of the salt behavior is unpredictable and the dramatic difference between the non-mesylate salts was an unexpected discovery in the behavior of the salts.
# [8] = aqueous solubility of the disalt; cited from earlier work
# [9] = pKa of the counter-acid, not of the apilimod salt
compound,measurement,setting,value
1-hydroxy-2-naphthoate,pKa of Acid (first value),[1]; [9],2.7
same,pKa of Acid (second value),[1]; [9],13.5
Cc1cccc(/C=N/Nc2cc(N3CCOCC3)nc(OCCc3ccccn3)n2)c1 [Apilimod],solubility at 3 days,"[2]; 0.1N HCl, pH 1, simulated gastric fluid, pH of approximately 1, read-out: solubility",> 10000 µg/mL
same,PXRD of Residuals Day 3,[2]; BRB pH 2,Phosphate salt
same,Conc Day 3,"[2]; BRB pH 2, medium pH 1.99, prep. 11 mg/mL, room temperature, Day 3 pH 2.75",137 µg/mL
same,PXRD of Residuals Day 3,[2]; BRB pH 3,Phosphate salt
same,PXRD of Residuals Day 3,[2]; BRB pH 4,"Free base, hydrate Group B"
same,PXRD of Residuals Day 3,[2]; BRB pH 5,"Free base, hydrate Group B"
same,PXRD of Residuals Day 3,[2]; BRB pH 6,"Free base, hydrate Group B"
same,PXRD of Residuals Day 3,[2]; BRB pH 7,"Free base, hydrate Group B"
same,PXRD of Residuals Day 3,[2]; BRB pH 8,"Free base, hydrate Group B"
same,solubility thermodynamic at 3 days,"[2]; aqueous buffer, BRB pH 2, medium pH 1.99, prep. 11 mg/mL, room temperature, Day 3 pH 2.75, read-out: Conc Day 3",137 µg/mL
same,solubility thermodynamic at 3 days,"[2]; aqueous buffer, BRB pH 3, medium pH 2.88, prep. 2.8 mg/mL, room temperature, Day 3 pH 3.61, read-out: Conc Day 3",17.3 µg/mL
same,solubility thermodynamic at 3 days,"[2]; aqueous buffer, BRB pH 4, medium pH 4.11, prep. 2.8 mg/mL, room temperature, Day 3 pH 4.22, read-out: Conc Day 3",2.3 µg/mL
same,solubility thermodynamic at 3 days,"[2]; aqueous buffer, BRB pH 5, medium pH 5.04, prep. 2.8 mg/mL, room temperature, Day 3 pH 5.08, read-out: Conc Day 3",0.2 µg/mL
same,solubility thermodynamic at 3 days,"[2]; aqueous buffer, BRB pH 6, medium pH 6.15, prep. 2.7 mg/mL, room temperature, Day 3 pH 6.18, read-out: Conc Day 3",< 0.1 µg/mL
same,solubility thermodynamic at 3 days,"[2]; aqueous buffer, BRB pH 7, medium pH 7.18, prep. 2.7 mg/mL, room temperature, Day 3 pH 7.21, read-out: Conc Day 3",< 0.1 µg/mL
same,solubility thermodynamic at 3 days,"[2]; pH 7.9, aqueous buffer, BRB pH 8, medium pH 7.90, prep. 2.8 mg/mL, room temperature, Day 3 pH 8.01, read-out: Conc Day 3",< 0.1 µg/mL
same,PXRD of Residuals Day 3,[2]; pH 1 (0.1N HCl),In solution; no excess solid
same,solubility at 3 days,"[2]; simulated gastric fluid, pH 1 (0.1N HCl), medium pH 1.08, prep. 11 mg/mL, room temperature, Day 3 pH 1.44, read-out: Conc Day 3",> 10700 µg/mL
same,efficacy over placebo,active Crohn's disease,did not demonstrate efficacy over placebo
same,tolerability,active Crohn's disease,well tolerated
same,effect on synovial IL-12 and IL-23 expression,[3],failed to alter synovial IL-12 and IL-23 expression
same,immunomodulatory activity,IL-12/IL-23 synthesis,showed immunomodulatory activity supporting the inhibition of IL-12/IL-23 synthesis
same,Residual Solids By XRPD,[4]; listed as Free base,Matches Input
same,Residual Solids By XRPD,[4]; listed as free base,match the XRPD pattern of the initial input material
Cc1cccc(/C=N/Nc2cc(N3CCOCC3)nc(OCCc3ccccn3)n2)c1 [HCl],solubility in FaSSIF relative to other forms,[5],higher solubility at 1 hour compared to the other salts and the freebase
same,Residual Solids By XRPD,[4],match the XRPD pattern of the initial input material; also recorded: Matches Input
same,pKa of acid,"[1]; strong acids required for disalt formation, per the '436 patent",−4.5
Cc1cccc(/C=N/Nc2cc(N3CCOCC3)nc(OCCc3ccccn3)n2)c1.Cc1cccc(/C=N/Nc2cc(N3CCOCC3)nc(OCCc3ccccn3)n2)c1.O=C(O)/C=C/C(=O)O [Hemi-fumarate],residues by powder diffraction (PXRD),[6],"crystalline, and matched input salts"
same,intrinsic dissolution rate relative to D/L-Lactate and HCl salts,[7]; 0.01N HCl,less that 10-times lower
same,Residual Solids By XRPD,[4],Matches Input
same,Residual Solids By XRPD,[4]; listed as hemi-fumarate,match the XRPD pattern of the initial input material
same,pKa of Acid (first value),[1]; [9],3.0
same,pKa of Acid (second value),[1]; [9],4.4
Cc1cccc(/C=N/Nc2cc(N3CCOCC3)nc(OCCc3ccccn3)n2)c1.O=C(O)CC(=O)O [Malonate],Residual Solids By XRPD,[4],Matches Input
same,Residual Solids By XRPD,[4]; listed as malonate,match the XRPD pattern of the initial input material
same,pKa of Acid (first value),[1]; [9],2.8
same,pKa of Acid (second value),[1]; [9],5.7
Cc1cccc(/C=N/Nc2cc(N3CCOCC3)nc(OCCc3ccccn3)n2)c1.O=P(O)(O)O [Phosphate],Residual Solids By XRPD,[4],Matches Input
same,Residual Solids By XRPD,[4]; listed as phosphate,match the XRPD pattern of the initial input material
same,pKa of Acid (first value),[1]; [9],2.0
same,pKa of Acid (second value),[1]; [9],7.1
same,pKa of Acid (third value),[1]; [9],12.3
Cc1cccc(/C=N/Nc2cc(N3CCOCC3)nc(OCCc3ccccn3)n2)c1.O=C(O)CCC(=O)O [Succinate],pKa of Acid (first value),[1]; [9],4.2
same,pKa of Acid (second value),[1]; [9],5.6
Cc1cccc(C=NNc2cc(N3CCOCC3)nc(OCCc3ccccn3)n2)c1.Cl.Cl [dichloride],solubility in water,[8],213000 µg/mL
Glycolate,Intrinsic Dissolution Rate free base equivalent,[7],0.2670
same,Residual Solids By XRPD,[4],consistent with the input material and the poorly crystalline phase
same,pKa of Acid (first value),[1]; [9],3.3
L-Tartrate,Intrinsic Dissolution Rate free base equivalent,[7],0.3399
same,Residual Solids By XRPD,[4],match the XRPD pattern of the initial input material; also recorded: Matches Input
same,pKa of Acid (first value),[1]; [9],3.0
same,pKa of Acid (second value),[1]; [9],4.4
Maleate,residues by powder diffraction (PXRD),[6],"crystalline, and matched input salts"
same,Intrinsic Dissolution Rate free base equivalent,[7],0.0871
same,Residual Solids By XRPD,[4],Matches Input
same,Residual Solids By XRPD,[4]; listed as maleate,match the XRPD pattern of the initial input material
same,pKa of Acid (first value),[1]; [9],1.9
same,pKa of Acid (second value),[1]; [9],6.2
